Assay results: patent publication US8962641B2, “Pyrimidine-substituted pyrrolidine derivatives, pharmaceutical compositions and uses thereof” (Boehringer Ingelheim International GmbH, priority 2013, dated 2015)

Target: human ACC2 (Homo sapiens (Human), UniProt O00763)
Assay: ACC2 assay (spectrophotometric 384 well assay, NADH-linked kinetic method)
Format: biochemical
Settings: hACC2 construct lacking 128 N-terminal amino acids; coupled lactate dehydrogenase/pyruvate kinase reaction, 340 nm, 25° C.
Method in brief: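 Baculovirus/insect-cell human ACC2, anion-exchange purified; ADP formation coupled to pyruvate kinase/lactate dehydrogenase, NADH loss followed at 340 nm, 25° C, 15 min. Final 200 μM NADH and acetyl-CoA, 500 uM ATP; vehicle and no-acetyl-CoA wells set 100% and 0%.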

human ACC2, sequence (O00763 129-2458): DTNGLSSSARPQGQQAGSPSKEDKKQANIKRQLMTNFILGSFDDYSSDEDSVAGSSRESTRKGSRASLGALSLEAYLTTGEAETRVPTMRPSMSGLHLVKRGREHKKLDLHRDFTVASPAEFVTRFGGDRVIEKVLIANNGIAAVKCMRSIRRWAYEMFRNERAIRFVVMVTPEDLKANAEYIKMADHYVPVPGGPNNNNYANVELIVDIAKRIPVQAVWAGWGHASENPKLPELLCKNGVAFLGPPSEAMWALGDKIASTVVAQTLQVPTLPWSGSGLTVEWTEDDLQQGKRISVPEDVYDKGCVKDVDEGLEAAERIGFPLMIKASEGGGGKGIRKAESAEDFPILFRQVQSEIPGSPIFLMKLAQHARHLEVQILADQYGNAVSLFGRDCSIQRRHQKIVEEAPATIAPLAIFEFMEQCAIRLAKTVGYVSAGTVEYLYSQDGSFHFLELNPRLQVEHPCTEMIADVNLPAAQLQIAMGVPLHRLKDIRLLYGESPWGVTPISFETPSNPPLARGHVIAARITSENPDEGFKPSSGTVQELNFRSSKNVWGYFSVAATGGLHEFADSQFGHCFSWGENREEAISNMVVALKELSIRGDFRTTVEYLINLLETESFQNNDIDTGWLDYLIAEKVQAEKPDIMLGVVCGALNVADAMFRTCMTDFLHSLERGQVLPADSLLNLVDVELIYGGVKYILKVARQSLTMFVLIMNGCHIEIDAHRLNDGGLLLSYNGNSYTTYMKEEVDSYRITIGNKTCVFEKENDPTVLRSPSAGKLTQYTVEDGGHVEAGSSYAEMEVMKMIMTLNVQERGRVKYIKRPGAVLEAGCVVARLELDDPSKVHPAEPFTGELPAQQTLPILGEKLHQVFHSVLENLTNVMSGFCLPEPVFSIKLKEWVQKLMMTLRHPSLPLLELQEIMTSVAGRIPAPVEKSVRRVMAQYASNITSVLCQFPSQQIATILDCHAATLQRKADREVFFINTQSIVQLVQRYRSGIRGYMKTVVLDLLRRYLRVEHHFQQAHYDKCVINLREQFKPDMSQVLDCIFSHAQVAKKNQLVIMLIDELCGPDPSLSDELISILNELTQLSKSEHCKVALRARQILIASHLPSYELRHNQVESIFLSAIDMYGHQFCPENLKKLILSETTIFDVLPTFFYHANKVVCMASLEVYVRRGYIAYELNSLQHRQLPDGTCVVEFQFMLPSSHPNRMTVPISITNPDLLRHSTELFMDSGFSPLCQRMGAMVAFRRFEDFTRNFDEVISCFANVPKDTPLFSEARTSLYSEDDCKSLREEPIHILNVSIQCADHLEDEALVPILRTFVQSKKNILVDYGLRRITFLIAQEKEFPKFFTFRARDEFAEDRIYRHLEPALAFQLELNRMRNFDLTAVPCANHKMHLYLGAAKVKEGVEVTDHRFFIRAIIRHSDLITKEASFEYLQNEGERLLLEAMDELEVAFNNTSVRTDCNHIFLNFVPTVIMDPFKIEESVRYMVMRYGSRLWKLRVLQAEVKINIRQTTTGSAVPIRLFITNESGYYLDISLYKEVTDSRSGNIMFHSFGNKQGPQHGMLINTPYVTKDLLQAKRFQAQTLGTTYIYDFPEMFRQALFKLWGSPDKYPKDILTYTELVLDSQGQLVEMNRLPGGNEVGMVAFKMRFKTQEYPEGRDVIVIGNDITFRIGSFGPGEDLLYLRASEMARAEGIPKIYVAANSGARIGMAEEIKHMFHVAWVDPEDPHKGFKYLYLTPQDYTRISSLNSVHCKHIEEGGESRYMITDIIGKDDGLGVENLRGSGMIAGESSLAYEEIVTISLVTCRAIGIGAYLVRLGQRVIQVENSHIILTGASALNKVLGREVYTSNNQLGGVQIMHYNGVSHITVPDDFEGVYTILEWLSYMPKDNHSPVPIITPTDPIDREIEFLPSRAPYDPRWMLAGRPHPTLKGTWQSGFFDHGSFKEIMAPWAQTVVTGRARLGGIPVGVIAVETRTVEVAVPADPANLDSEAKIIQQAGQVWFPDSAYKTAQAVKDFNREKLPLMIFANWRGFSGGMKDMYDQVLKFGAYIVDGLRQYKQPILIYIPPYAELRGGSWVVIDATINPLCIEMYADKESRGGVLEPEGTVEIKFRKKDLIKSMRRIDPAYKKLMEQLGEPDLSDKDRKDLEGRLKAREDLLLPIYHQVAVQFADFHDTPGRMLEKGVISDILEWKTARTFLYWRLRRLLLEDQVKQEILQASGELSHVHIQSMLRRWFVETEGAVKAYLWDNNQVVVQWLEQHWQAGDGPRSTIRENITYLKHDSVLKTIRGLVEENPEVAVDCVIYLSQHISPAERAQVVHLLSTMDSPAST

Work on `CC(=O)N[C@@H](C)c1ccc(O[C@@H]2CCN(c3nc(N4CCCC4(C)C)ncc3F)C2)cc1` [Example 8.271] yielded an IC50 of 170 nM.

With `CC(=O)N[C@@H](C)c1ccc(O[C@@H]2CCN(c3nc(N4CC5COCC5C4)ncc3F)C2)cc1` (stereo partly drawn) [Example 8.272] the IC50 was 1190 nM.

For `CC(=O)N[C@@H](C)c1ccc(O[C@@H]2CCN(c3nc(N4CCC(C)(O)CC4)ncc3F)C2)cc1` [Example 8.273], the IC50 was 1350 nM.

`CC(=O)N[C@@H](C)c1ccc(O[C@@H]2CCN(c3nc(N4CCOC(C)C4)ncc3F)C2)cc1` (stereo partly drawn) [Example 8.274] showed an IC50 of 130 nM.

Compound `COC1CCCN(c2ncc(F)c(N3CC[C@@H](Oc4ccc([C@H](C)NC(C)=O)cc4)C3)n2)C1` (stereo partly drawn) [Example 8.275] has an IC50 of 183 nM.

Compound `CC(=O)N[C@@H](C)c1ccc(O[C@@H]2CCN(c3nc(N4CCC5(CC5)C4)ncc3Cl)C2)cc1` [Example 8.276] has an IC50 of 174 nM.

Work on `CC(=O)N[C@@H](C)c1ccc(O[C@@H]2CCN(c3ccnc(N4C[C@@H]5CC[C@@H](C4)O5)n3)C2)cc1` [Example 8.277] yielded an IC50 of 867 nM.

For `CC(=O)N[C@@H](C)c1ccc(O[C@@H]2CCN(c3ncnc(N4C[C@@H]5CC[C@@H](C4)O5)c3F)C2)cc1` [Example 8.278], the IC50 was 673 nM.

`CC(=O)N[C@@H](C)c1ccc(O[C@@H]2CCN(c3nc(N4C[C@@H]5CC[C@@H](C4)O5)ncc3F)C2)cc1` [Example 8.279] was tested, and the IC50 was 369 nM.

`CC(=O)N[C@@H](C)c1ccc(O[C@@H]2CCN(c3nc(N4C[C@@H]5CC[C@@H](C4)O5)ncc3Cl)C2)cc1` [Example 8.280] was tested, and the IC50 was 1230 nM.

Work on `CC(=O)N[C@@H](C)c1ccc(O[C@@H]2CCN(c3nc(N4CCC[C@@H]4C)ncc3Cl)C2)cc1` [Example 8.281] yielded an IC50 of 372 nM.

Work on `CC(=O)N[C@@H](C)c1ccc(O[C@@H]2CCN(c3nc(N4CCC[C@@H]4C)ncc3F)C2)cc1` [Example 8.282] yielded an IC50 of 157 nM.

Compound `CC(=O)N[C@@H](C)c1ccc(O[C@@H]2CCN(c3nc(N4CCC[C@H]4C)ncc3F)C2)cc1` [Example 8.283] has an IC50 of 57 nM.

With `CC(=O)N[C@@H](C)c1ccc(O[C@@H]2CCN(c3ncnc(N4CCC[C@@H]4C)c3F)C2)cc1` [Example 8.284] the IC50 was 240 nM.

Compound `CC(=O)N[C@@H](C)c1ccc(O[C@@H]2CCN(c3nc(N4CCC[C@H]4C)ncc3Cl)C2)cc1` [Example 8.285] has an IC50 of 89 nM.

`CC(=O)N[C@@H](C)c1ccc(O[C@@H]2CCN(c3ncnc(N4CCC[C@H]4C)c3F)C2)cc1` [Example 8.286] gave an IC50 of 165 nM.

Compound `CC(=O)N[C@@H](C)c1ccc(O[C@@H]2CCN(c3ncnc(N4CC[C@@H](F)C4)c3F)C2)cc1` [Example 8.287] has an IC50 of 455 nM.

In the case of `CC(=O)N[C@@H](C)c1ccc(O[C@@H]2CCN(c3nc(N(CCO)C4CC4)ncc3F)C2)cc1` [Example 8.288], the IC50 is reported as 874 nM.

Work on `CC(=O)N[C@@H](C)c1ccc(O[C@@H]2CCN(c3nc(N4CC(F)(F)C4)ncc3Cl)C2)cc1` [Example 8.289] yielded an IC50 of 484 nM.

For `CC(=O)N[C@@H](C)c1ccc(O[C@@H]2CCN(c3nc(N(C)C4CCOCC4)ncc3F)C2)cc1` [Example 8.290], the IC50 was 765 nM.

`CC(=O)N[C@@H](C)c1ccc(O[C@@H]2CCN(c3ncnc(N4CC[C@](C)(O)C4)c3F)C2)cc1` [Example 8.291] was tested, and the IC50 was 111 nM.

Compound `CC(=O)N[C@@H](C)c1ccc(O[C@@H]2CCN(c3ncnc(NCC4(O)CCC4)c3F)C2)cc1` [Example 8.292] has an IC50 of 359 nM.

`CC(=O)N[C@@H](C)c1ccc(O[C@@H]2CCN(c3ncnc(N4CC[C@H](C)C4)c3F)C2)cc1` [Example 8.293] showed an IC50 of 50 nM.

Compound `CC(=O)N[C@@H](C)c1ccc(O[C@@H]2CCN(c3ncnc(N4CC[C@@H](C)C4)c3F)C2)cc1` [Example 8.294] has an IC50 of 52 nM.

Compound `COc1c(N2CC[C@@H](Oc3ccc([C@H](C)NC(C)=O)cc3)C2)ncnc1N1CCC(C)(O)C1` (stereo partly drawn) [Example 8.295] has an IC50 of 790 nM.

For `CC(=O)N[C@@H](C)c1ccc(O[C@@H]2CCN(c3ncnc(NCC(C)(C)O)c3Cl)C2)cc1` [Example 8.296], the IC50 was 113 nM.

Compound `CC(=O)N[C@@H](C)c1ccc(O[C@@H]2CCN(c3ncnc(N4CCC(C)(O)C4)c3Cl)C2)cc1` (stereo partly drawn) [Example 8.297] has an IC50 of 224 nM.

`CCCNc1ncnc(N2CC[C@@H](Oc3ccc([C@H](C)NC(C)=O)cc3)C2)c1Cl` [Example 8.298] showed an IC50 of 156 nM.

Work on `CC(=O)N[C@@H](C)c1ccc(O[C@@H]2CCN(c3ncnc(NCC4(O)CCC4)c3Cl)C2)cc1` [Example 8.299] yielded an IC50 of 70 nM.

`COc1c(NCC2(O)CCC2)ncnc1N1CC[C@@H](Oc2ccc([C@H](C)NC(C)=O)cc2)C1` [Example 8.300] was tested, and the IC50 was 537 nM.

With `CCCNc1ncnc(N2CC[C@@H](Oc3ccc([C@H](C)NC(C)=O)cc3)C2)c1OC` [Example 8.301] the IC50 was 809 nM.

Compound `CCCNc1ncc(F)c(N2CC[C@@H](Oc3ccc([C@H](C)NC(C)=O)cc3)C2)n1` [Example 8.302] has an IC50 of 202 nM.

With `CC(=O)N[C@@H](C)c1ccc(O[C@@H]2CCN(c3nc(NCC4CC4)ncc3F)C2)cc1` [Example 8.303] the IC50 was 301 nM.

With `CC(=O)N[C@@H](C)c1ccc(O[C@@H]2CCN(c3nc(NCC(F)F)ncc3F)C2)cc1` [Example 8.304] the IC50 was 510 nM.

`CC(=O)N[C@@H](C)c1ccc(O[C@@H]2CCN(c3ncnc(NCC4(O)CC4)c3Cl)C2)cc1` [Example 8.305] was tested, and the IC50 was 176 nM.

`CCC(=O)Nc1nc(C)c(C(=O)N[C@@H](C)c2ccc(O[C@@H]3CCN(c4ncnc(NCC5CC5)c4Cl)C3)cc2)s1` [Example 8.307] was tested, and the IC50 was 94 nM.

`CC(=O)N[C@@H](C)c1ccc(O[C@@H]2CCN(c3ncnc(NC4CCCC4)c3Cl)C2)cc1` [Example 8.308] was tested, and the IC50 was 105 nM.

`CC(=O)N[C@@H](C)c1ccc(O[C@@H]2CCN(c3ncnc(NCC4CC4)c3Cl)C2)cc1` [Example 8.309] gave an IC50 of 42 nM.

In the case of `CC(=O)N[C@@H](C)c1ccc(O[C@@H]2CCN(c3ncnc(N4CC[C@H](C)C4)c3Cl)C2)cc1` [Example 8.310], the IC50 is reported as 52 nM.

`CC(=O)N[C@@H](C)c1ccc(O[C@@H]2CCN(c3ncnc(NCC4CCC4)c3Cl)C2)cc1` [Example 8.311] was tested, and the IC50 was 62 nM.

`CCCNc1ncnc(N2CC[C@@H](Oc3ccc([C@H](C)NC(=O)c4sc(NC(=O)CC)nc4C)cc3)C2)c1Cl` [Example 8.312] showed an IC50 of 286 nM.

With `CC(=O)N[C@@H](C)c1ccc(O[C@@H]2CCN(c3ncnc(NCC4CCCO4)c3Cl)C2)cc1` (stereo partly drawn) [Example 8.313] the IC50 was 306 nM.

`CCC(C)Nc1ncnc(N2CC[C@@H](Oc3ccc([C@H](C)NC(C)=O)cc3)C2)c1Cl` (stereo partly drawn) [Example 8.314] showed an IC50 of 345 nM.

Compound `CCC(=O)Nc1nc(C)c(C(=O)N[C@@H](C)c2ccc(O[C@@H]3CCN(c4ncnc(NCC(F)F)c4Cl)C3)cc2)s1` [Example 8.315] has an IC50 of 552 nM.

Compound `CC(=O)N[C@@H](C)c1ccc(O[C@@H]2CCN(c3ncnc(NCC4CCCCO4)c3Cl)C2)cc1` (stereo partly drawn) [Example 8.316] has an IC50 of 580 nM.

`CCCNc1ncnc(N2CC[C@@H](Oc3ccc([C@H](C)NC(=O)c4sc(NC(=O)CC)nc4C)cc3)C2)c1F` [Example 8.318] showed an IC50 of 703 nM.

For `CCCNc1ncnc(N2CC[C@@H](Oc3ccc([C@H](C)NC(=O)c4sc(NC(=O)CC)nc4C)cc3)C2)c1OC` [Example 8.320], the IC50 was 742 nM.

Compound `CCC(=O)Nc1nc(C)c(C(=O)N[C@@H](C)c2ccc(O[C@@H]3CCN(c4ncnc(NCC(F)F)c4OC)C3)cc2)s1` [Example 8.321] has an IC50 of 830 nM.

`COc1cccc(-c2nccc(N3CC[C@@H](Oc4ccc([C@H](C)NC(C)=O)cc4)C3)n2)c1` [Example 9.1, N—((S)-1-(4-((R)-1-(2-(3-methoxyphenyl)pyrimidin-4-yl)pyrrolidin-3-yloxy)phenyl)ethyl)acetamide] gave an IC50 of 725 nM.

Compound `CC(=O)N[C@@H](C)c1ccc(O[C@@H]2CCN(c3ncnc(C4CC4)c3Cl)C2)cc1` [Example 9.2] has an IC50 of 987 nM.

With `CC(=O)N[C@@H](C)c1ccc(O[C@@H]2CCN(c3ncnc(C4CCC4)c3F)C2)cc1` [Example 9.3] the IC50 was 342 nM.

In the case of `CC(=O)N[C@@H](C)c1ccc(O[C@@H]2CCN(c3ncnc(C4CCCC4)c3F)C2)cc1` [Example 9.4], the IC50 is reported as 464 nM.

In the case of `CC(=O)N[C@@H](C)c1ccc(O[C@@H]2CCN(c3ncnc(C4CC4)c3F)C2)cc1` [Example 9.5], the IC50 is reported as 1010 nM.

`CC(=O)N[C@@H]1CC[C@H](C(=O)N[C@@H](C)c2ccc(O[C@@H]3CCN(c4ncnc(OCC5CC5)c4F)C3)cc2)C1` [Example 10.1, (1S,3R)-3-acetamido-N—((S)-1-(4-((R)-1-(6-(cyclopropylmethoxy)-5-fluoropyrimidin-4-yl)pyrrolidin-3-yloxy)phenyl)ethyl)cyclopentanecarboxamide] was tested, and the IC50 was 235 nM.

`COCC(=O)N[C@@H]1CC[C@H](C(=O)N[C@@H](C)c2ccc(O[C@@H]3CCN(c4ncnc(OCC5CC5)c4F)C3)cc2)C1` [Example 10.2] gave an IC50 of 174 nM.

With `C[C@H](NC(=O)C1CC1)c1ccc(O[C@@H]2CCN(c3nc(N4CCC5(CC5)C4)ncc3F)C2)cc1` [Example 10.4] the IC50 was 120 nM.

For `C[C@H](NC(=O)C1CC1)c1ccc(O[C@@H]2CCN(c3nc(N4CCOCC4)ncc3F)C2)cc1` [Example 10.5], the IC50 was 295 nM.
